The supplement of paper PMC10307832

Tests used:
Experiment in all cases: relative viability (nuclei count vs DMSO), 5 days (fraction); higher = more cells survive
Sulindac + Olaparib = compound: CC1=C(CC(=O)O)c2cc(F)ccc2/C1=C\c1ccc([S+](C)[O-])cc1 [Sulindac] + O=C(c1cc(Cc2n[nH]c(=O)c3ccccc23)ccc1F)N1CCN(C(=O)C2CC2)CC1 [Olaparib] (partner 8 µM)
Procedure, shortened: (§1)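 The day after seeding in 1536-well plates, lung cancer cell lines were treated by pin tool with a single drug, or with a fixed anchor-drug dose together with five library-drug doses (not always all listed) in √10 steps. After 5 days, a combined fix-and-stain solution (final 0.05% Triton X-100, 1% formaldehyde, 1 ug/ml Hoechst) was added. Nuclei counted on 4× images gave relative viability as treated counts over vehicle counts, reported as the median of duplicate plates.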

Sulindac + Alpelisib = compound: CC1=C(CC(=O)O)c2cc(F)ccc2/C1=C\c1ccc([S+](C)[O-])cc1 [Sulindac] + Cc1nc(NC(=O)N2CCC[C@H]2C(N)=O)sc1-c1ccnc(C(C)(C)C(F)(F)F)c1 [Alpelisib] (partner 2 µM)
Procedure, shortened: as §1

[1] = compound: CN[C@@H]1C[C@H]2O[C@@](C)([C@@H]1OC)n1c3ccccc3c3c4c(c5c6ccccc6n2c5c31)C(=O)NC4 [Staurosporine] + CC(=O)Nc1cccc(-n2c(=O)n(C3CC3)c(=O)c3c(Nc4ccc(I)cc4F)n(C)c(=O)c(C)c32)c1 [Trametinib] (partner 0.02 µM)
Procedure, shortened: as §1

[2] = compound: CN[C@@H]1C[C@H]2O[C@@](C)([C@@H]1OC)n1c3ccccc3c3c4c(c5c6ccccc6n2c5c31)C(=O)NC4 [Staurosporine] + CS(=O)(=O)CCNCc1ccc(-c2ccc3ncnc(Nc4ccc(OCc5cccc(F)c5)c(Cl)c4)c3c2)o1 [Lapatinib] (partner 2 µM)
Procedure, shortened: as §1

Row | Cell Line | relative viability (Sulindac + Olaparib; first compound 0.08 µM) | relative viability (Sulindac + Olaparib; first compound 0.253 µM) | relative viability (Sulindac + Olaparib; first compound 0.8 µM) | relative viability (Sulindac + Olaparib; first compound 2.53 µM) | relative viability (Sulindac + Olaparib; first compound 8 µM) | relative viability (Sulindac + Alpelisib; first compound 0.08 µM) | relative viability (Sulindac + Alpelisib; first compound 0.253 µM) | relative viability (Sulindac + Alpelisib; first compound 0.8 µM) | relative viability (Sulindac + Alpelisib; first compound 2.53 µM) | relative viability (Sulindac + Alpelisib; first compound 8 µM) | relative viability ([1]; first compound 0.005 µM) | relative viability ([1]; first compound 0.05 µM) | relative viability ([1]; first compound 0.1581 µM) | relative viability ([1]; first compound 0.5 µM) | relative viability ([2]; first compound 0.005 µM) | relative viability ([2]; first compound 0.01581 µM) | relative viability ([2]; first compound 0.05 µM) | relative viability ([2]; first compound 0.1581 µM) | relative viability ([2]; first compound 0.5 µM) | relative viability ([1]; first compound 0.01581 µM)
1 | 201T | 0.896 | 0.825 | 0.846 | 0.886 | 0.883 | 0.967 | 1.04 | 1.02 | 0.999 | 1.02 | 0.769 | 0.703 | 0.58 | 0.485 | 1.04 | 0.957 | 0.948 | 0.895 | 0.637 | –
2 | A549 | 0.468 | 0.303 | – | 0.331 | 0.352 | 0.866 | 1.04 | – | 0.758 | 0.87 | – | – | – | – | 0.823 | 0.715 | 0.499 | 0.0558 | 0.0481 | –
3 | A-427 | 0.74 | 0.787 | 0.8 | 0.742 | 0.821 | 1.03 | 1.08 | 0.534 | 1.09 | 1.11 | 0.521 | 0.247 | 0.121 | 0.117 | 0.967 | 0.245 | 0.56 | 0.303 | 0.175 | 0.439
4 | ABC-1 | 1.1 | 0.611 | 0.769 | 0.591 | 0.601 | 1.25 | 1.02 | 0.811 | 0.861 | 1 | – | – | – | – | 0.953 | 0.799 | 0.608 | 0.339 | 0.502 | –
5 | BEN | 0.964 | 1.07 | 1 | 1.05 | 1.06 | 1.09 | 1.22 | 0.831 | 1 | 1.15 | 1.21 | 0.827 | 0.729 | 0.439 | 0.656 | 0.449 | 0.381 | 0.198 | 0.207 | 1.2
6 | CAL-12T | 0.794 | 0.727 | 0.649 | 0.664 | 0.769 | – | 1.37 | 0.999 | 1.31 | 1.54 | 0.19 | 0.0965 | 0.126 | 0.083 | 0.356 | 0.198 | 0.214 | 0.192 | 0.194 | 0.145
7 | COR-L23 | 0.348 | 0.449 | 0.291 | 0.323 | 0.376 | 0.871 | 0.867 | – | 0.714 | 1.13 | 0.325 | 0.0689 | 0.0665 | 0.0391 | 0.695 | 0.31 | 0.241 | 0.0931 | 0.0662 | 0.148
8 | COR-L 105 | 0.645 | 0.61 | 0.692 | 0.717 | 0.72 | 0.826 | 0.818 | 0.673 | 0.949 | 1.29 | 0.427 | 0.274 | 0.234 | 0.237 | 0.354 | 0.247 | 0.247 | 0.243 | 0.218 | 0.357
9 | Calu-6 | 0.618 | 0.624 | 0.449 | 0.531 | 0.711 | 1.06 | 1.09 | 0.774 | 1.08 | 1.23 | – | – | – | – | 0.87 | 0.51 | 0.277 | 0.136 | 0.085 | –
10 | ChaGo-K-1 | 0.485 | 0.359 | 0.414 | 0.379 | 0.449 | – | – | – | – | – | 0.911 | 0.796 | 0.579 | 0.455 | – | – | – | – | – | –
11 | EBC-1 | 0.846 | 0.643 | 0.545 | 0.748 | 0.816 | 0.993 | 0.944 | 0.848 | 0.79 | 0.887 | – | – | – | – | 0.187 | 0.177 | 0.189 | 0.122 | 0.127 | –
12 | EKVX | 0.736 | 0.929 | 0.718 | 0.803 | 0.93 | 0.819 | 0.824 | 0.721 | 0.997 | 1.04 | 0.224 | 0.143 | 0.169 | 0.12 | 0.152 | 0.135 | 0.162 | 0.156 | 0.1 | 0.184
13 | EMC-BAC-2 | 0.493 | 0.488 | 0.476 | 0.46 | 0.566 | 0.854 | 0.791 | 0.637 | 0.767 | 0.87 | 0.42 | 0.219 | 0.253 | – | 0.427 | 0.498 | 0.178 | 0.188 | 0.167 | 0.225
14 | EPLC-272H | 0.828 | 0.852 | 0.72 | 0.639 | 0.727 | 0.759 | – | 0.618 | 0.985 | 1.03 | 0.291 | 0.123 | 0.067 | 0.0425 | 0.787 | 0.194 | 0.513 | 0.175 | 0.149 | 0.15
15 | H3255 | 0.573 | 0.531 | 0.501 | 0.557 | 0.553 | 0.805 | 0.768 | 0.537 | 0.747 | 0.898 | 0.48 | 0.236 | 0.197 | 0.141 | 0.138 | 0.0852 | 0.124 | 0.142 | 0.137 | 0.321
16 | HARA | 0.737 | 0.935 | 1 | 0.731 | 0.955 | 1.07 | 0.952 | – | 0.918 | 0.785 | 0.365 | 0.2 | 0.132 | 0.118 | 0.485 | 0.327 | 0.308 | 0.118 | 0.0844 | 0.401
17 | HCC-15 | 0.747 | 0.763 | 0.68 | 0.702 | 0.765 | 0.989 | 0.957 | 0.813 | 0.828 | 0.968 | 0.305 | 0.192 | 0.192 | 0.165 | 0.892 | – | 0.595 | 0.365 | 0.151 | –
18 | HCC-44 | 0.983 | 1.05 | 0.773 | 0.933 | 1.01 | 0.928 | 0.987 | 0.761 | 0.891 | 0.821 | 1.04 | 0.444 | – | 0.322 | 0.956 | – | 0.208 | 0.0947 | 0.0895 | –
